According to patent publication US20260103474A1, “NOVEL COMPOUNDS FOR THE DIAGNOSIS OF TDP-43 PROTEINOPATHIES” (AC IMMUNE SA, priority 2022, published 2026):

How the values were obtained:
TDP-43 aggregates = TDP-43 aggregates (Homo sapiens, UniProt Q13148); test: Classical autoradiography in brain sections from patients with FTD; assay type: binding; conditions: for Displacement on FTLD-TDP type A and B compared to non-demented control / Specific binding in FTLD-TDP type A compared to control: classical autoradiography; for cARG displacement on FTLD-TDP Type A case / cARG displacement on FTLD-TDP Type B case / cARG displacement on non-demented control: total binding divided by non-specific binding, grey matter, self-block with cold compound; for Specific binding in FTLD-TDP type A compared to control: one-way ANOVA with Tukey's correction
Experimental: All tissues were collected from donors for or from whom a written informed consent for a brain autopsy and the use of the material and clinical information for research purposes had been obtained by the respective brain banks. All samples were anonymized and coded. Frozen brain tissue blocks with confirmed TDP-43 pathology upon autopsy were processed using a cryotome to generate sections of 10 μm in thickness and mounted on glass slides. Sections were kept at −80° C. until use.
Brain sections were fixed for 15 minutes at 4° C. with 4% formaldehyde on ice and washed three times for eight minutes with 1×PBS at RT. Sections were blocked in assay buffer for 30 minutes (50 mM Tris-HCl, 0.9% NaCl+0.1% BSA). Cold test compound (Compound 1, Compound 8 or Compound 17) was diluted in assay buffer to 4 μM and applied on half of the sections for 40 minutes at RT to determine non-specific binding. The remaining half of the sections were only incubated with assay buffer (total binding). Following this incubation, an equal volume of the corresponding tritiated compound (i.e. [^3H]-Compound 1, [^3H]-Compound 8 or [^3H]-Compound 17, respectively), diluted to 20 nM (for [^3H]-Compound 1 and [^3H]-Compound 8) or 10 nM ([^3H]-Compound 17) or increasing concentration from 0.1 to 200 nM (for [^3H]-Compound 1 and [^3H]-Compound 17), was added on sections and incubated for 2 hours at RT and then washed as follows: once in ice-cold 50 mM Tris-HCl pH 7.4 buffer for one minute, twice in ice-cold PBS for one minute, once in ice-cold 50 mM Tris-HCl pH 7.4 buffer for one minute and finally rinsed briefly in ice-cold distilled water.
Sections were subsequently dried under a stream of air and mounted with a copper-based adhesive strip. Bound radioactivity was quantified by exposing the slides in a real-time autoradiography system (Beaquant™ AI4R) for 2 hours, with measurement settings configured for tritium. Beavacq software (AI4R) was used to acquire the image which was subsequently quantified using Beamage image analysis software (AI4R). Specific binding (non-specific binding subtracted from total) and displacement (total binding divided by non-specific) were calculated. Bar graphs were generated using GraphPad Prism. For Kd determination on brain sections, the specific binding data were fitted with a non-linear regression analysis using a one-site specific binding model in GraphPad Prism.

[1] = test system: AD brain-derived Tau PHF aggregates; test: Micro-radiobinding direct binding on AD brain-derived Tau PHF; set-up: species or system human; conditions: tritiated compound 0.6 to 200 nM
Experimental: The enrichment procedure was modified from Jicha et al, 1997 and Rostagno and Ghiso, 2009. Briefly, around 15 g of the AD human brain were thawed on ice and homogenized with homogenization buffer (3 ml per gram of tissue) (0.75 M NaCl in RAB buffer (100 mM 2-(N-morpholino)ethanesulfonic acid (MES), 1 mM EGTA, 0.5 mM MgSO4, 2 mM DTT, pH 6.8) supplemented with protease inhibitors (Complete; Roche 693124001)) in a glass Dounce homogenizer. […]
PD brain-derived a-synuclein aggregates and AD brain-derived Tau PHF aggregates were spotted onto microarray slides. […] Quantification of signal was performed by using the image analysis software Beamage (ai4R). Non-specific signal was determined with an excess of non-radiolabelled compound (2 μM) and specific binding was calculated by subtracting the non-specific signal from the total signal. Competition was calculated as percentage, where 0% was defined as the specific binding in the presence of vehicle and 100% as the values obtained in the presence of excess of the non-radiolabelled a-syn reference compound. Ki values were calculated in GraphPad Prism7 by applying a nonlinear regression curve fit using a one site, specific binding model. […]

Chain of TDP-43 aggregates (Q13148 whole entry): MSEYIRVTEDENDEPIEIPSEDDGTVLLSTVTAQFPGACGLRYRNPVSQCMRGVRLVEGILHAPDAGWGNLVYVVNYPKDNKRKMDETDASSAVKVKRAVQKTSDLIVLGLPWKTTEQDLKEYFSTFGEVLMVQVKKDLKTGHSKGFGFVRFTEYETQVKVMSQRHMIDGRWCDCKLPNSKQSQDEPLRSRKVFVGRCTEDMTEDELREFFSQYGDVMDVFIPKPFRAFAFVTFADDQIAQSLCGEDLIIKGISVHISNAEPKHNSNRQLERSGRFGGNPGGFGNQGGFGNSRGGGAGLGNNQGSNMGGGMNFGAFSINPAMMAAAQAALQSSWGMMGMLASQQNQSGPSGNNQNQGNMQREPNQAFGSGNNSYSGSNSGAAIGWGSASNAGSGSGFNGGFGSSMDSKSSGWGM

Direct binding in AD brain-derived Tau PHF aggregates [1] | Specific binding in FTLD-TDP type A compared to control (TDP-43 aggregates) | Compound | Displacement on FTLD-TDP type A and B compared to non-demented control (TDP-43 aggregates) | cARG displacement on FTLD-TDP Type A case (TDP-43 aggregates) | cARG displacement on FTLD-TDP Type B case (TDP-43 aggregates) | cARG displacement on non-demented control (TDP-43 aggregates)
– | – | O=C1c2sc(-c3ccc(N4CC[C@@H](F)C4)nc3F)nc2CCN1c1cccnc1 [Compound 1, 2-[2-fluoro-6-[(3R)-3-fluoropyrrolidin-1-yl]-3-pyridyl]-5-(3-pyridyl)-6,7-dihydrothiazolo[5,4-c]pyridin-4-one] | increased displacement | 3.3 | 3.2 | 1.9
– | – | O=C1c2sc(-c3ccc(N4CCC(CO)CC4)nc3F)nc2CCN1c1cccnc1 [Compound 17, 2-(2-fluoro-6-(4-(hydroxymethyl)piperidin-1-yl)pyridin-3-yl)-5-(pyridin-3-yl)-6,7-dihydrothiazolo[5,4-c]pyridin-4(5H)-one] | increased displacement | 2.9 | 2.6 | 1.7
No significant binding | significantly higher specific binding | [3H]c1cncc(N2CCc3nc(-c4cc([3H])c(N5CC[C@@H](F)C5)nc4F)sc3C2=O)c1 [[^3H]-Compound 1, tritiated 2-[2-fluoro-6-[(3R)-3-fluoropyrrolidin-1-yl]-3-pyridyl]-5-(3-pyridyl)-6,7-dihydrothiazolo[5,4-c]pyridin-4-one] | – | – | – | –
No significant binding | significantly higher specific binding | [3H]C([3H])(O)C1CCN(c2ccc(-c3nc4c(s3)C(=O)N(c3cccnc3)CC4)c(F)n2)CC1 [[^3H]-Compound 17, 2-(2-fluoro-6-(4-(hydroxymethyl-t2)piperidin-1-yl)pyridin-3-yl)-5-(pyridin-3-yl)-6,7-dihydrothiazolo[5,4-c]pyridin-4(5H)-one] | – | – | – | –
